The values below are quoted from earlier work in patent publication US20240261298A1, “METHODS OF TREATING DEPRESSION AND ANXIETY” (Woolsey Pharmaceuticals, Inc., priority 2021, published 2024).

Where a name gives a salt, the structure may show the parent alone.

Data set [1] has as its system adult mice. The settings on record: exposure to fasudil.
The conditions of data set [2]: 1 hydroxy (M3) metabolite, in vivo.

Take `O=S(=O)(c1cccc2cnccc12)N1CCCNCC1` [Fasudil, Hexahydro-1-(5-isoquinolinesulfonyl)-1H-1,4-diazepine monohydrochloride hemihydrate]: the anxiety-like behaviors entry in data set [1] is “induces anxiety-like behaviors”.

In the case of `O=S(=O)(c1cccc2c(O)nccc12)N1CCCNCC1` [M3], the half-life entry in data set [2] was “about 8 hours”.
